# Patent US8580794B2 (AbbVie Inc., priority 2009, dated 2013)
# Molecular target: GST-Bc1-2 (Homo sapiens, UniProt P10415)
# Assay: Time Resolved-Fluorescence Resonance Energy Transfer (TR-FRET) Bcl-2 binding assay with F-Bak peptide probe
# Settings: GST-Bcl-2 1 nM, F-Bak probe 100 nM, Tb-anti-GST 1 nM; '<' = below limit of detection; read-out: TR-FRET Bcl-2 Binding Ki
# Chain of GST-Bc1-2 (P10415 whole entry): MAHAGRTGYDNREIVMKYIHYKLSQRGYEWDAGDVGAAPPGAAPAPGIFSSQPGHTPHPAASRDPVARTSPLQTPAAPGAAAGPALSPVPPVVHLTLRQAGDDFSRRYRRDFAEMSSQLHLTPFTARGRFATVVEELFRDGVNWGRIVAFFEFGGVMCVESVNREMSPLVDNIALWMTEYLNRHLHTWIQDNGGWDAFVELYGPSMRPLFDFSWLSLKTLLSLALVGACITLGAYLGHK
row,SMILES,Ki [nM]
1,"CN(C)CC(=O)N1CCO[C@@H](COc2ncc(S(=O)(=O)NC(=O)c3ccc(N4CCN(CC5=C(c6ccc(Cl)cc6)CC(C)(C)CC5)CC4)cc3Oc3cnc4[nH]ccc4c3)cc2Cl)C1 [Example 247, N-[(5-chloro-6-{[(2R)-4-(N,N-dimethylglycyl)morpholin-2-yl]methoxy}pyridin-3-yl)sulfonyl]-4-(4-{[2-(4-chlorophenyl)-4,4-dimethylcyclohex-1-en-1-yl]methyl}piperazin-1-yl)-2-(1H-pyrrolo[2,3-b]pyridin-5-yloxy)benzamide]",0.019
2,"CC1(C)CCC(CN2CCN(c3ccc(C(=O)NS(=O)(=O)c4cnc(OCC5(F)CCOCC5)c(F)c4)c(Oc4cnc5[nH]ccc5c4)c3)CC2)=C(c2ccc(Cl)cc2)C1 [Example 248, 4-(4-{[2-(4-chlorophenyl)-4,4-dimethylcyclohex-1-en-1-yl]methyl}piperazin-1-yl)-N-({5-fluoro-6-[(4-fluorotetrahydro-2H-pyran-4-yl)methoxy]pyridin-3-yl}sulfonyl)-2-(1H-pyrrolo[2,3-b]pyridin-5-yloxy)benzamide]",0.029
3,"CC1(C)CCC(CN2CCN(c3ccc(C(=O)NS(=O)(=O)c4cnc(OCC(C)(CO)CO)c(Cl)c4)c(Oc4cnc5[nH]ccc5c4)c3)CC2)=C(c2ccc(Cl)cc2)C1 [Example 250, N-({5-chloro-6-[3-hydroxy-2-(hydroxymethyl)-2-methylpropoxy]pyridin-3-yl}sulfonyl)-4-(4-{[2-(4-chlorophenyl)-4,4-dimethylcyclohex-1-en-1-yl]methyl}piperazin-1-yl)-2-(1H-pyrrolo[2,3-b]pyridin-5-yloxy)benzamide]",0.412
4,"CC1(C)CCC(CN2CCN(c3ccc(C(=O)NS(=O)(=O)c4ccc(OCC5(F)CCOCC5)nc4)c(Oc4cnc5[nH]ccc5c4)c3)CC2)=C(c2ccc(Cl)cc2)C1 [Example 251, 4-(4-{[2-(4-chlorophenyl)-4,4-dimethylcyclohex-1-en-1-yl]methyl}piperazin-1-yl)-N-({6-[(4-fluorotetrahydro-2H-pyran-4-yl)methoxy]pyridin-3-yl}sulfonyl)-2-(1H-pyrrolo[2,3-b]pyridin-5-yloxy)benzamide]",0.571
5,"CC1(C)CCC(CN2CCN(c3ccc(C(=O)NS(=O)(=O)c4ccc(NCC5CN(C(CF)CF)CCO5)c([N+](=O)[O-])c4)c(Oc4cnc5[nH]ccc5c4)c3)CC2)=C(c2ccc(Cl)cc2)C1 (stereo not drawn) [Example 252, 4-(4-{[2-(4-chlorophenyl)-4,4-dimethylcyclohex-1-en-1-yl]methyl}piperazin-1-yl)-N-{[4-({[4-(1,3-difluoropropan-2-yl)morpholin-2-yl]methyl}amino)-3-nitrophenyl]sulfonyl}-2-(1H-pyrrolo[2,3-b]pyridin-5-yloxy)benzamide]",< 0.01
6,"CC1(C)CCC(CN2CCN(c3ccc(C(=O)NS(=O)(=O)c4cnc(OCC5CCN(CC#N)CC5)c(Cl)c4)c(Oc4cnc5[nH]ccc5c4)c3)CC2)=C(c2ccc(Cl)cc2)C1 [Example 253, N-[(5-chloro-6-{[1-(cyanomethyl)piperidin-4-yl]methoxy}pyridin-3-yl)sulfonyl]-4-(4-{[2-(4-chlorophenyl)-4,4-dimethylcyclohex-1-en-1-yl]methyl}piperazin-1-yl)-2-(1H-pyrrolo[2,3-b]pyridin-5-yloxy)benzamide]",0.052
7,"COCCOCCN1CC[C@@H](Nc2ccc(S(=O)(=O)NC(=O)c3ccc(N4CCN(CC5=C(c6ccc(Cl)cc6)CC(C)(C)CC5)CC4)cc3Oc3cnc4[nH]ccc4c3)cc2[N+](=O)[O-])C1 [Example 254, 4-(4-{[2-(4-chlorophenyl)-4,4-dimethylcyclohex-1-en-1-yl]methyl}piperazin-1-yl)-N-{[4-({(3R)-1-[2-(2-methoxyethoxy)ethyl]pyrrolidin-3-yl}amino)-3-nitrophenyl]sulfonyl}-2-(1H-pyrrolo[2,3-b]pyridin-5-yloxy)benzamide]",< 0.01
8,"CN(C)CC(=O)N1CC[C@@H](Nc2ccc(S(=O)(=O)NC(=O)c3ccc(N4CCN(CC5=C(c6ccc(Cl)cc6)CC(C)(C)CC5)CC4)cc3Oc3cnc4[nH]ccc4c3)cc2[N+](=O)[O-])C1 [Example 255, 4-(4-{[2-(4-chlorophenyl)-4,4-dimethylcyclohex-1-en-1-yl]methyl}piperazin-1-yl)-N-[(4-{[(3R)-1-(N,N-dimethylglycyl)pyrrolidin-3-yl]amino}-3-nitrophenyl)sulfonyl]-2-(1H-pyrrolo[2,3-b]pyridin-5-yloxy)benzamide]",< 0.01
9,"CC1(C)CCC(CN2CCN(c3ccc(C(=O)NS(=O)(=O)c4ccc(NC5CN(C6COC6)C5)c([N+](=O)[O-])c4)c(Oc4cnc5[nH]ccc5c4)c3)CC2)=C(c2ccc(Cl)cc2)C1 [Example 256, 4-(4-{[2-(4-chlorophenyl)-4,4-dimethylcyclohex-1-en-1-yl]methyl}piperazin-1-yl)-N-[(3-nitro-4-{[1-(oxetan-3-yl)azetidin-3-yl]amino}phenyl)sulfonyl]-2-(1H-pyrrolo[2,3-b]pyridin-5-yloxy)benzamide]",< 0.01
10,"CC1(C)CCC(CN2CCN(c3ccc(C(=O)NS(=O)(=O)c4cnc(OCC5(F)CCN(CC#N)CC5)c(Cl)c4)c(Oc4cnc5[nH]ccc5c4)c3)CC2)=C(c2ccc(Cl)cc2)C1 [Example 257, N-[(5-chloro-6-{[1-(cyanomethyl)-4-fluoropiperidin-4-yl]methoxy}pyridin-3-yl)sulfonyl]-4-(4-{[2-(4-chlorophenyl)-4,4-dimethylcyclohex-1-en-1-yl]methyl}piperazin-1-yl)-2-(1H-pyrrolo[2,3-b]pyridin-5-yloxy)benzamide]",0.052
11,"CN(C)CC(=O)N1CCO[C@H](CNc2ccc(S(=O)(=O)NC(=O)c3ccc(N4CCN(CC5=C(c6ccc(Cl)cc6)CC(C)(C)CC5)CC4)cc3Oc3cnc4[nH]ccc4c3)cc2[N+](=O)[O-])C1 [Example 258, 4-(4-{[2-(4-chlorophenyl)-4,4-dimethylcyclohex-1-en-1-yl]methyl}piperazin-1-yl)-N-{[4-({[(2R)-4-(N,N-dimethylglycyl)morpholin-2-yl]methyl}amino)-3-nitrophenyl]sulfonyl}-2-(1H-pyrrolo[2,3-b]pyridin-5-yloxy)benzamide]",< 0.01
12,"CN(C)CC(=O)N1CCO[C@@H](CNc2ccc(S(=O)(=O)NC(=O)c3ccc(N4CCN(CC5=C(c6ccc(Cl)cc6)CC(C)(C)CC5)CC4)cc3Oc3cnc4[nH]ccc4c3)cc2[N+](=O)[O-])C1 [Example 259, 4-(4-{[2-(4-chlorophenyl)-4,4-dimethylcyclohex-1-en-1-yl]methyl}piperazin-1-yl)-N-{[4-({[(2S)-4-(N,N-dimethylglycyl)morpholin-2-yl]methyl}amino)-3-nitrophenyl]sulfonyl}-2-(1H-pyrrolo[2,3-b]pyridin-5-yloxy)benzamide]",< 0.01
13,"CN(C)CC(=O)N1CCC(COc2ncc(S(=O)(=O)NC(=O)c3ccc(N4CCN(CC5=C(c6ccc(Cl)cc6)CC(C)(C)CC5)CC4)cc3Oc3cnc4[nH]ccc4c3)cc2Cl)CC1 [Example 260, N-[(5-chloro-6-{[1-(N,N-dimethylglycyl)piperidin-4-yl]methoxy}pyridin-3-yl)sulfonyl]-4-(4-{[2-(4-chlorophenyl)-4,4-dimethylcyclohex-1-en-1-yl]methyl}piperazin-1-yl)-2-(1H-pyrrolo[2,3-b]pyridin-5-yloxy)benzamide]",0.016
14,"CC1(C)CCC(CN2CCN(c3ccc(C(=O)NS(=O)(=O)c4cnc(O[C@@H]5CCN(CC(F)F)C5)c(Cl)c4)c(Oc4cnc5[nH]ccc5c4)c3)CC2)=C(c2ccc(Cl)cc2)C1 [Example 261, N-[(5-chloro-6-{[(3R)-1-(2,2-difluoroethyl)pyrrolidin-3-yl]oxy}pyridin-3-yl)sulfonyl]-4-(4-{[2-(4-chlorophenyl)-4,4-dimethylcyclohex-1-en-1-yl]methyl}piperazin-1-yl)-2-(1H-pyrrolo[2,3-b]pyridin-5-yloxy)benzamide]",0.134
15,"CC1(C)CCC(CN2CCN(c3ccc(C(=O)NS(=O)(=O)c4ccc(N[C@@H]5CCN(CC#N)C5)c([N+](=O)[O-])c4)c(Oc4cnc5[nH]ccc5c4)c3)CC2)=C(c2ccc(Cl)cc2)C1 [Example 262, 4-(4-{[2-(4-chlorophenyl)-4,4-dimethylcyclohex-1-en-1-yl]methyl}piperazin-1-yl)-N-[(4-{[(3R)-1-(cyanomethyl)pyrrolidin-3-yl]amino}-3-nitrophenyl)sulfonyl]-2-(1H-pyrrolo[2,3-b]pyridin-5-yloxy)benzamide]",< 0.01
16,"COC1(Cc2ccccc2-c2ccc(Cl)cc2)CCN(c2ccc(C(=O)NS(=O)(=O)c3cnc(OCC4(F)CCOCC4)c(Cl)c3)c(Oc3cnc4[nH]ccc4c3)c2)CC1 [Example 263, 4-{4-[(4′-chlorobiphenyl-2-yl)methyl]-4-methoxypiperidin-1-yl}-N-({5-chloro-6-[(4-fluorotetrahydro-2H-pyran-4-yl)methoxy]pyridin-3-yl}sulfonyl)-2-(1H-pyrrolo[2,3-b]pyridin-5-yloxy)benzamide]",0.156
17,"COC1(Cc2ccccc2-c2ccc(Cl)cc2)CCN(c2ccc(C(=O)NS(=O)(=O)c3ccc(NCC4CCOCC4)c([N+](=O)[O-])c3)c(Oc3cnc4[nH]ccc4c3)c2)CC1 [Example 264, 4-{4-[(4′-chlorobiphenyl-2-yl)methyl]-4-methoxypiperidin-1-yl}-N-({3-nitro-4-[(tetrahydro-2H-pyran-4-ylmethyl)amino]phenyl}sulfonyl)-2-(1H-pyrrolo[2,3-b]pyridin-5-yloxy)benzamide]",0.036
18,"O=C(NS(=O)(=O)c1ccc(NCC2CCOCC2)c([N+](=O)[O-])c1)c1ccc(N2CCN(CC3=C(c4ccc(Cl)cc4)CCC4(CCN(C(CF)CF)CC4)C3)CC2)cc1Oc1cnc2[nH]ccc2c1 [Example 265, 4-(4-{[9-(4-chlorophenyl)-3-(1,3-difluoropropan-2-yl)-3-azaspiro[5.5]undec-8-en-8-yl]methyl}piperazin-1-yl)-N-({3-nitro-4-[(tetrahydro-2H-pyran-4-ylmethyl)amino]phenyl}sulfonyl)-2-(1H-pyrrolo[2,3-b]pyridin-5-yloxy)benzamide]",< 0.01
